Laboratory results published in patent US5591752A, “Quinoline derivative” (Ube Industries, Ltd., priority 1993, dated 1997).
Where two headings read alike, the source gives them in different places.

Columns and labels:
[1] = molecular target: T1, Leukotriene D4 (LTD4) receptor (Cavia porcellus, UniProt Q2NNR5); experiment: Leukotriene D4 receptor binding test ([3H]ICI-198615 displacement, lung cell membrane fractions); settings: guinea pig lung membranes, [3H]ICI-198615 about 0.2 nM, pKi=-log Ki
T1 construct: lung cell membrane fractions of guinea pigs were used; from tissue; host or cells: lung membrane fractions of Hartley strain male guinea pigs
T1 sequence (Q2NNR5 1-340): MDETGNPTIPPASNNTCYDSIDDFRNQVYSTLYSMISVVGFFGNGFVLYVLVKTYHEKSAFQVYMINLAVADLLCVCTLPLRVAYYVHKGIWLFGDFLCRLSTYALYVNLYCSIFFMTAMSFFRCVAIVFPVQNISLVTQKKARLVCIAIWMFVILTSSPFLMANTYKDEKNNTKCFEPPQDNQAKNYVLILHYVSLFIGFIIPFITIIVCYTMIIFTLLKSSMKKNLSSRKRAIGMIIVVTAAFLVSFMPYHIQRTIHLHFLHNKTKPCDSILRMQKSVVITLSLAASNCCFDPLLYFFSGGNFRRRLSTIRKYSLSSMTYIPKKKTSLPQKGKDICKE
Description: Leukotriene D4 receptor binding test
<Preparation of receptor samples>
As receptor samples, lung cell membrane fractions of guinea pigs were used. The membrane fractions were prepared according to the method of Ahn et al. (Ahn, H. S. & Barnett, A. (1986) Eur. J. Pharmacol., 127, 153.). After Hartley strain male guinea pigs (body weight: 400 to 500 g, supplied by Nihon SLC Co.) were killed by exsanguination, lungs were extracted and perfused with a physiological saline solution (Otsuka Seiyaku) from lung arteries. The extracted lungs were cut into pieces immediately or after the lungs were stored by freezing them at -80 ° C. A 10-fold amount of a buffer solution (pH 7.4) of 10 mM PIPES, 10 mM MgCl2, 10 mM CaCl2 and 50 mM NaCl was added thereto and the mixtures were made suspensions by a homogenizer (manufactured by Yamato Co., LP-41C Model). After the suspensions were filtered with gauze, the filtrates were centrifuged by an ultracentrifuge (manufactured by Hitachi Co., 70P-72 Model) with 50,000 g for 10 minutes, whereby membrane fractions were deposited. The membrane fractions were washed twice and then suspended in the same buffer solution to obtain receptor samples. Measurement of a protein concentration was conducted by the Lowry method (Lowry, O, H. et al. (1951) J. Biol. Chem., 193,265.) by using bovine serum albumin as a standard protein. The samples prepared (protein amount: 10 to 25 mg/ml) were stored by freezing them at -80° C. and used for experiments.
<Leukotriene D4 receptor binding test>
The leukotriene D4 (LTD4) receptor binding test was conducted according to the method of O'Sullivan et al. (O'Sullivan, B. P. & Mong, S. (1989) Mol. Pharmacol., 35, 795.). The receptor samples were diluted with a buffer solution (pH 7.4) of 10 mM PIPES, 10 mM MgCl2, 10 mM CaCl2 and 50 mM NaCl and 0.42 mg/ml in terms of a protein amount was used. As a labeling compound, [^3 H]ICI-198615 (produced by Du Pont Co., 60 Ci/mmol) which specifically binds to the LTD4 receptor was used. [^3 H]ICI-198615 and a compound to be tested were dissolved in dimethylsulfoxide and a 1/50 amount (2% by volume) of the solution was added to the receptor-diluted solutions, respectively. 500 μl of each reaction mixture was incubated at 25° C. for 40 minutes and then filtered with a glass fiber filter (Whatman, GF/B type) by using a cell harvester (manufactured by Brandel Co., M-30R Model). The filters were washed with 10 ml of an ice-cooled 100 mM NaCl-50 mM phosphate buffer solution (pH 7.5) and subjected to ultrasonic treatment in 9 ml of a liquid scintillator (manufactured by Nacalai Tesque, Co., Clear sol I) for 2 minutes. Thereafter, radioactivity was measured by a liquid scintillation counter (manufactured by Packard Co., 2000 CA Model). In a test of determining a dissociation constant of ICI-198615, 0.1 to 2 nM [^3 H]ICI-198615 and 10 μM non-radioactive ICI-198615 were used. In a test of determining inhibition constants of the respective compounds to be tested, [^3 H]ICI-198615 having a concentration of about 0.2 nM and the compounds each having a concentration of 0.1 pM to 0.1 mM were used.
<Data analysis of receptor binding test>
The dissociation constant (Kd) of ICI-198615 and the binding inhibition constants (Ki) of the respective compounds to be tested were determined by the following numerical formulae (A), (B) and (C).
wherein B: a concentration of a label [3H] which is bound to a receptor, Bmax: a maximum receptor-binding concentration of a label [^3 H], F: a concentration of a label [^3 H] which is not bound to a receptor, [L]: a concentration of a label [^3 H], IC50 : a concentration of a compound which inhibits 50% of binding of a label [^3 H] to a receptor and pKi: a logarithm, of a reciprocal of Ki.

[2] = tested on: Leukotriene D4-induced respiratory contraction; experiment: Leukotriene D4-induced respiratory contraction test (Konzett and Rossler method); type: in vivo, guinea pig; settings: Cavia porcellus, po, LTD4 0.5 μg/kg i.v. 1 hour later, anesthetized Hartley guinea pigs, read-out: Inhibition ratio
Description: Leukotriene D4 -induced respiratory contraction test
Hartley strain male guinea pigs (body weight: 400 to 600 g, supplied by Nihon SLC Co.) were used and all of them were bred under conditions of constant temperature (23°±2° C.) and constant humidity ([…]). The animals which had been fasted for 24 hours before experiments were used.
LTD4 (Funakoshi) dissolved in a physiological saline solution (Otsuka Seiyaku) was used. The compounds to be tested suspended in a 0.5% carboxymethyl cellulose aqueous solution were used.
The operation was conducted according to the method of Konzett and Rossler (Konzett, H. and Rossler, R. Naunyn Schmiedebergs (1940) Arch. Exp. Pathol. Pharmacol., 195, 71.). Each guinea pig was anesthetized with urethane (1.5 g/kg, i.p.) and then fixed in the supine position. A trachea was incised and a .phi. type cannula was inserted into the trachea and connected to a respirator (Shinano Seisakusho, SN-480-7) for small animals. Artificial respiration with positive pressure was conducted with a pressure loaded to a lung of 10 cm H2 O, an air supplying rate of 5 ml/stroke and 60 strokes/min. The air supplying rate to the trachea was measured by differential pressure transducers (Nihon Koden, TU-241T and TP-602T) connected to the cannula in the trachea and recorded on a rectigraph (Nihon Koden, WT-645G Model).
LTD4 (0.5 μg/kg/0.5 ml) was administered intravenously (i.v.) from a cannula inserted into a common jugular vein to cause shrinkage of a trachea. Subsequently, a compound to be tested was administered orally (p.o.) after 10 minutes and LTD4 was administered intravenously (i.v.) again after 1 hour to cause shrinkage of the trachea. The results are shown by using a ratio of inhibiting a trachea-shrinking reaction before administering the compound to be tested.

[3] = read-out: pKi value (converted)

**Q.** What does the source list for `O=C(O)CCSC1c2ccccc2COc2ccc(OCc3ccc4cc(F)c(Cl)cc4n3)cc21` (single isomer, unassigned; (+)) [Example 50, (+)-11-(2-Carboxyethylthio)-2-(7-chloro-6-fluoroquinolin-2-yl)methoxy-6,11-dihydrodibenz[b,e]oxepine]?
**A.** Ki ([1]; pKi value): 0.0794 nM; inhibition in vivo at 1 mg/kg [2]: 100%

**Q.** How did the Ki [1, 3] turn out when `c1ccc(Cc2nnn[nH]2)c(COc2ccc(OCc3ccc4ccccc4n3)cc2)c1` [Compound A, 5-[[2-[[4-(2-quinolinylmethoxy)phenoxy]methyl]phenyl]methyl]-1H-tetrazole, reference compound] was run?
**A.** 6.31 nM

**Q.** What about the inhibition in vivo at 1 mg/kg [2] of the same compound?
**A.** 51%

**Q.** How did the inhibition in vivo at 1 mg/kg [2] turn out when `O=C(O)CCSC1c2ccccc2COc2ccc(OCc3ccc4cc(F)c(Cl)cc4n3)cc21` (centres unmarked) [Example 1, 11-(2-Carboxyethylthio)-2-(7-chloro-6-fluoroquinolin-2-yl)methoxy-6,11-dihydrodibenz[b,e]oxepine] was run?
**A.** 100%

**Q.** Which results are given for `O=C(O)CCSC1c2ccccc2COc2ccc(OCc3ccc4ccc(Cl)cc4n3)cc21` (centres unmarked) [Example 2, 11-(2-Carboxyethylthio)-2-(7-chloroquinolin-2-yl)methoxy-6,11-dihydrodibenz[b,e]oxepine]?
**A.** Ki ([1]; pKi value): 0.794 nM; inhibition in vivo at 1 mg/kg [2]: 100%

**Q.** With `O=C(O)CCSC1c2ccccc2COc2ccc(OCc3ccc4cc(F)ccc4n3)cc21` (centres unmarked) [Example 3, 11-(2-Carboxyethylthio)-2-(6-fluoroquinolin-2-yl)methoxy-6,11-dihydrodibenz[b,e]oxepine] as the compound, how does the Ki ([1]; pKi value) read?
**A.** 3.16 nM

**Q.** What about the inhibition in vivo at 1 mg/kg [2] of the same compound?
**A.** 100%

**Q.** Which results are given for `O=C(O)CCSC1c2ccccc2COc2ccc(OCc3ccc4ccc(F)cc4n3)cc21` (centres unmarked) [Example 4, 11-(2-Carboxyethylthio)-2-(7-fluoroquinolin-2-yl)methoxy-6,11-dihydrodibenz[b,e]oxepine]?
**A.** Ki ([1]; pKi value): 1.58 nM; inhibition in vivo at 1 mg/kg [2]: 93%

**Q.** `COc1ccc2c(c1)COc1ccc(OCc3ccc4ccc(Cl)cc4n3)cc1C2SCCC(=O)O` (centres unmarked) [Example 13, 11-(2-Carboxyethylthio)-2-(7-chloroquinolin-2-yl)methoxy-8-methoxy-6,11-dihydrodibenz[b,e]oxepine] was tested. Which Ki ([1]; pKi value) did it give?
**A.** 0.794 nM

**Q.** What about the inhibition in vivo at 1 mg/kg [2] of the same compound?
**A.** 67%

**Q.** How did the Ki ([1]; pKi value) turn out when `O=C(O)CSC1c2ccccc2COc2ccc(OCc3ccc4ccc(Cl)cc4n3)cc21` (centres unmarked) [Example 21, 11-Carboxymethylthio-2-(7-chloroquinolin-2-yl)methoxy-6,11-dihydrodibenz[b,e]oxepine] was run?
**A.** 0.794 nM

**Q.** And the inhibition in vivo at 1 mg/kg [2]?
**A.** 71%

**Q.** With `O=C(O)COC1c2ccccc2COc2ccc(OCc3ccc4cc(Cl)ccc4n3)cc21` (centres unmarked) [Example 26, 11-Carboxymethoxy-2-(6-Chloroquinolin-2-yl)methoxy-6,11-dihydrodibenz[b,e]oxepine] as the compound, how does the Ki [1, 3] read?
**A.** 1.58 nM

**Q.** And the inhibition in vivo at 1 mg/kg [2]?
**A.** 87%
